Assays:
Format in all cases: in vivo
[1] = test system: redroot pigweed (Amaranthus retroflexus, AMARE); experiment: Pre-emerge test, greenhouse herbicide activity screening; details: pre-emerge, phytotoxicity rating 0-100 at 14 days after application
In short: (§1)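 Visual ratings on a 0-100 scale (0 no damage, 100 all plants dead) were taken at 14 days after treatment. Rates of 15-1000 g ai/ha in acetone, 187 l/ha, were sprayed onto soil one day after planting (pre-emerge) or onto 2-3 leaf plants with 0.25% v/v surfactant (post-emerge).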

[2] = test system: upland rice (Oryza sp., var. Tebonnet, RICE); experiment: Post-emerge test, crop safety; details: post-emerge, crop damage rating 0-100 at 14 days after application
In short: (§2)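 Applied at 15–1000 g ai/ha from acetone in 187 l/ha spray volume. Post-emergence applications included 0.25% v/v non-ionic surfactant and reached plants sown 8–21 days before. Pre-emergence applications were incorporated by surface watering. Efficacy or crop damage was rated on a 0–100 scale after 14 days.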

[3] = test system: field corn (Zea mays L., var. Dekalb 535, CORN); experiment: Post-emerge test, crop safety; details: post-emerge, crop damage rating 0-100 at 14 days after application
In short: as §2

[4] = test system: upland rice (Oryza sp., var. Tebonnet, RICE); experiment: Pre-emerge test, crop safety; details: crop damage, pre-emerge, phytotoxicity rating 0-100 at 14 days after application
In short: as §1

[5] = test system: field corn (Zea mays L., var. Dekalb 535, CORN); experiment: Pre-emerge test, crop safety; details: crop damage, pre-emerge, phytotoxicity rating 0-100 at 14 days after application
In short: as §1

[6] = test system: large crabgrass (Digitaria sanguinalis, DIGSA); experiment: Pre-emerge test, greenhouse herbicide activity screening; details: pre-emerge, phytotoxicity rating 0-100 at 14 days after application
In short: as §2

[7] = test system: sicklepod (Cassia obtusifolia, CASOB); experiment: as above; details: pre-emerge, phytotoxicity rating 0-100 at 14 days after application
In short: as §2

[8] = test system: lambsquarters (Chenopodium album, CHEAL); experiment: as above; details: pre-emerge, phytotoxicity rating 0-100 at 14 days after application
In short: as §2

[9] = test system: barnyardgrass (Echinochloa crus-galli, ECHCG); experiment: as above; details: pre-emerge, phytotoxicity rating 0-100 at 14 days after application
In short: as §2

[10] = test system: ivyleaf morningglory (Ipomoea hederacea, IPOHE); experiment: as above; details: pre-emerge, phytotoxicity rating 0-100 at 14 days after application
In short: as §2

[11] = test system: johnsongrass (Sorghum halepense, SORHA); experiment: as above; details: pre-emerge, phytotoxicity rating 0-100 at 14 days after application
In short: as §2

[12] = test system: velvetleaf (Abutilon theophrasti, ABUTH); experiment: as above; details: pre-emerge, phytotoxicity rating 0-100 at 14 days after application
In short: as §2

[13] = test system: green foxtail (Setaria viridis, SETVI); experiment: as above; details: pre-emerge, phytotoxicity rating 0-100 at 14 days after application
In short: as §2

[14] = test system: large crabgrass (Digitaria sanguinalis, DIGSA); experiment: Post-emerge test, greenhouse herbicide activity screening; details: post-emerge, phytotoxicity rating 0-100 at 14 days after application
In short: (§3)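 Fourteen days after spraying, crop and weed injury was graded visually from 0, no effect, to 100, every plant dead. Test substances were dissolved in acetone and applied at 15–1000 g ai/ha with a flat-fan nozzle. Application was either pre-emergence, one day after sowing, or post-emergence at the 2–3 leaf stage.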

[15] = test system: sicklepod (Cassia obtusifolia, CASOB); experiment: as above; details: post-emerge, phytotoxicity rating 0-100 at 14 days after application
In short: as §3

[16] = test system: lambsquarters (Chenopodium album, CHEAL); experiment: as above; details: post-emerge, phytotoxicity rating 0-100 at 14 days after application
In short: as §3

[17] = test system: barnyardgrass (Echinochloa crus-galli, ECHCG); experiment: as above; details: post-emerge, phytotoxicity rating 0-100 at 14 days after application
In short: as §3

[18] = test system: ivyleaf morningglory (Ipomoea hederacea, IPOHE); experiment: as above; details: post-emerge, phytotoxicity rating 0-100 at 14 days after application
In short: as §3

[19] = test system: johnsongrass (Sorghum halepense, SORHA); experiment: as above; details: post-emerge, phytotoxicity rating 0-100 at 14 days after application
In short: as §3

[20] = test system: velvetleaf (Abutilon theophrasti, ABUTH); experiment: as above; details: post-emerge, phytotoxicity rating 0-100 at 14 days after application
In short: as §3

[21] = test system: redroot pigweed (Amaranthus retroflexus, AMARE); experiment: as above; details: post-emerge, phytotoxicity rating 0-100 at 14 days after application
In short: as §3

[22] = test system: green foxtail (Setaria viridis, SETVI); experiment: as above; details: post-emerge, phytotoxicity rating 0-100 at 14 days after application
In short: as §3

COc1c(Cl)cc(F)c(-n2c(=O)n3n(c2=O)CCCC3)c1NC(=O)c1ccc(F)cc1F [9-16]
Pre-emerge Herbicidal Activity AMARE ([1]; rate 63 g ai/ha): 70
Pre-emerge Herbicidal Activity AMARE ([1]; rate 250 g ai/ha): 100
Post-emerge Herbicidal Activity RICE ([2]; 63 g ai/ha): 30
Post-emerge Herbicidal Activity RICE ([2]; 250 g ai/ha): 70
Post-emerge Herbicidal Activity CORN ([3]; 63 g ai/ha): 5
Post-emerge Herbicidal Activity CORN ([3]; 250 g ai/ha): 65
Pre-emerge Herbicidal Activity RICE ([4]; rate 63 g ai/ha): 80
Pre-emerge Herbicidal Activity RICE ([4]; rate 250 g ai/ha): 90
Pre-emerge Herbicidal Activity CORN ([5]; rate 63 g ai/ha): 0
Pre-emerge Herbicidal Activity CORN ([5]; rate 250 g ai/ha): 90
Pre-emerge Herbicidal Activity DIGSA ([6]; rate 63 g ai/ha): 10
Pre-emerge Herbicidal Activity DIGSA ([6]; rate 250 g ai/ha): 40
Pre-emerge Herbicidal Activity CASOB ([7]; rate 63 g ai/ha): 20
Pre-emerge Herbicidal Activity CASOB ([7]; rate 250 g ai/ha): 60
Pre-emerge Herbicidal Activity CHEAL ([8]; rate 63 g ai/ha): 100
Pre-emerge Herbicidal Activity CHEAL ([8]; rate 250 g ai/ha): 100
Pre-emerge Herbicidal Activity ECHCG ([9]; rate 63 g ai/ha): 0
Pre-emerge Herbicidal Activity ECHCG ([9]; rate 250 g ai/ha): 40
Pre-emerge Herbicidal Activity IPOHE ([10]; rate 63 g ai/ha): 70
Pre-emerge Herbicidal Activity IPOHE ([10]; rate 250 g ai/ha): 70
Pre-emerge Herbicidal Activity SORHA ([11]; rate 63 g ai/ha): 10
Pre-emerge Herbicidal Activity SORHA ([11]; rate 250 g ai/ha): 40
Pre-emerge Herbicidal Activity ABUTH ([12]; rate 63 g ai/ha): 100
Pre-emerge Herbicidal Activity ABUTH ([12]; rate 250 g ai/ha): 100
Pre-emerge Herbicidal Activity SETVI ([13]; rate 63 g ai/ha): 39
Pre-emerge Herbicidal Activity SETVI ([13]; rate 250 g ai/ha): 70
Post-emerge Herbicidal Activity DIGSA ([14]; 63 g ai/ha): 10
Post-emerge Herbicidal Activity DIGSA ([14]; 250 g ai/ha): 0
Post-emerge Herbicidal Activity CASOB ([15]; 63 g ai/ha): 50
Post-emerge Herbicidal Activity CASOB ([15]; 250 g ai/ha): 85
Post-emerge Herbicidal Activity CHEAL ([16]; 63 g ai/ha): 65
Post-emerge Herbicidal Activity CHEAL ([16]; 250 g ai/ha): 80
Post-emerge Herbicidal Activity ECHCG ([17]; 63 g ai/ha): 0
Post-emerge Herbicidal Activity ECHCG ([17]; 250 g ai/ha): 10
Post-emerge Herbicidal Activity IPOHE ([18]; 63 g ai/ha): 90
Post-emerge Herbicidal Activity IPOHE ([18]; 250 g ai/ha): 100
Post-emerge Herbicidal Activity SORHA ([19]; 63 g ai/ha): 0
Post-emerge Herbicidal Activity SORHA ([19]; 250 g ai/ha): 0
Post-emerge Herbicidal Activity ABUTH ([20]; 63 g ai/ha): 100
Post-emerge Herbicidal Activity ABUTH ([20]; 250 g ai/ha): 100
Post-emerge Herbicidal Activity AMARE ([21]; 63 g ai/ha): 30
Post-emerge Herbicidal Activity AMARE ([21]; 250 g ai/ha): 75
Post-emerge Herbicidal Activity SETVI ([22]; 63 g ai/ha): 0
Post-emerge Herbicidal Activity SETVI ([22]; 250 g ai/ha): 20

O=C(Nc1cc(Cl)ccc1-n1c(=O)n2n(c1=O)CCCC2)c1ccc2ccccc2c1 [9-19]
Pre-emerge Herbicidal Activity AMARE ([1]; rate 63 g ai/ha): 100
Pre-emerge Herbicidal Activity AMARE ([1]; rate 250 g ai/ha): 100
Post-emerge Herbicidal Activity RICE ([2]; 63 g ai/ha): 15
Post-emerge Herbicidal Activity RICE ([2]; 250 g ai/ha): 25
Post-emerge Herbicidal Activity CORN ([3]; 63 g ai/ha): 10
Post-emerge Herbicidal Activity CORN ([3]; 250 g ai/ha): 10
Pre-emerge Herbicidal Activity RICE ([4]; rate 63 g ai/ha): 30
Pre-emerge Herbicidal Activity RICE ([4]; rate 250 g ai/ha): 50
Pre-emerge Herbicidal Activity CORN ([5]; rate 63 g ai/ha): 0
Pre-emerge Herbicidal Activity CORN ([5]; rate 250 g ai/ha): 0
Pre-emerge Herbicidal Activity DIGSA ([6]; rate 63 g ai/ha): 0
Pre-emerge Herbicidal Activity DIGSA ([6]; rate 250 g ai/ha): 80
Pre-emerge Herbicidal Activity CASOB ([7]; rate 63 g ai/ha): 0
Pre-emerge Herbicidal Activity CASOB ([7]; rate 250 g ai/ha): 20
Pre-emerge Herbicidal Activity CHEAL ([8]; rate 63 g ai/ha): 100
Pre-emerge Herbicidal Activity CHEAL ([8]; rate 250 g ai/ha): 100
Pre-emerge Herbicidal Activity ECHCG ([9]; rate 63 g ai/ha): 0
Pre-emerge Herbicidal Activity ECHCG ([9]; rate 250 g ai/ha): 0
Pre-emerge Herbicidal Activity IPOHE ([10]; rate 63 g ai/ha): 30
Pre-emerge Herbicidal Activity IPOHE ([10]; rate 250 g ai/ha): 0
Pre-emerge Herbicidal Activity SORHA ([11]; rate 63 g ai/ha): 0
Pre-emerge Herbicidal Activity SORHA ([11]; rate 250 g ai/ha): 20
Pre-emerge Herbicidal Activity ABUTH ([12]; rate 63 g ai/ha): 100
Pre-emerge Herbicidal Activity ABUTH ([12]; rate 250 g ai/ha): 100
Pre-emerge Herbicidal Activity SETVI ([13]; rate 63 g ai/ha): 0
Pre-emerge Herbicidal Activity SETVI ([13]; rate 250 g ai/ha): 60
Post-emerge Herbicidal Activity DIGSA ([14]; 63 g ai/ha): 0
Post-emerge Herbicidal Activity DIGSA ([14]; 250 g ai/ha): 10
Post-emerge Herbicidal Activity CASOB ([15]; 63 g ai/ha): 80
Post-emerge Herbicidal Activity CASOB ([15]; 250 g ai/ha): 95
Post-emerge Herbicidal Activity CHEAL ([16]; 63 g ai/ha): 100
Post-emerge Herbicidal Activity CHEAL ([16]; 250 g ai/ha): 100
Post-emerge Herbicidal Activity ECHCG ([17]; 63 g ai/ha): 0
Post-emerge Herbicidal Activity ECHCG ([17]; 250 g ai/ha): 10
Post-emerge Herbicidal Activity IPOHE ([18]; 63 g ai/ha): 75
Post-emerge Herbicidal Activity IPOHE ([18]; 250 g ai/ha): 90
Post-emerge Herbicidal Activity SORHA ([19]; 63 g ai/ha): 0
Post-emerge Herbicidal Activity SORHA ([19]; 250 g ai/ha): 0
Post-emerge Herbicidal Activity ABUTH ([20]; 63 g ai/ha): 100
Post-emerge Herbicidal Activity ABUTH ([20]; 250 g ai/ha): 100
Post-emerge Herbicidal Activity AMARE ([21]; 63 g ai/ha): 80
Post-emerge Herbicidal Activity AMARE ([21]; 250 g ai/ha): 98
Post-emerge Herbicidal Activity SETVI ([22]; 63 g ai/ha): 10
Post-emerge Herbicidal Activity SETVI ([22]; 250 g ai/ha): 20
